According to US20240182461A1, “SELECTIVE ANGIOTENSIN II RECEPTOR LIGANDS” (priority 2021, published 2024):
Like-named read-outs stand apart in the source and are kept apart here.

Columns and labels:
[1] = target: T1, human recombinant AT2 receptor (Homo sapiens, UniProt P50052); test: Radioligand binding to AT2 receptor (Eurofins radiometric scintillation assay); conditions: ligand 125I CGP 42112A; for IC50: 1, 10, 100 and 1000 nM, read-out: AT2 GraFit IC50; for Ki: seven-point dose-response curve, read-out: AT2R Ki
T1 construct: Eurofins (protocol only) ITEM26
T1 sequence (P50052 1-363): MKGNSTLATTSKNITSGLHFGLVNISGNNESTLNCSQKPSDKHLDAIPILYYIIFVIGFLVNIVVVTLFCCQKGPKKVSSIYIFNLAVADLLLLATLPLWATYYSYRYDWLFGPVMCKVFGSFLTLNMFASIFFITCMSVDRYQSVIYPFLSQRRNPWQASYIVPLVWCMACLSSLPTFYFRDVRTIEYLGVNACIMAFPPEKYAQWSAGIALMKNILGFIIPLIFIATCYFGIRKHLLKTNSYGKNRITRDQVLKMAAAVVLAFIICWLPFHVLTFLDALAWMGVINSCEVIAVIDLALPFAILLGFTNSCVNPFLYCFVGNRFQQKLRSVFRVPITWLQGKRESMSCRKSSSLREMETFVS

[2] = target: T2, human recombinant AT1 receptor (Homo sapiens, UniProt P30556); test: Radioligand binding to AT1 receptor (Eurofins radiometric scintillation assay); conditions: 1 and 10 μM; ligand 125I(sar1,Ile8)-AT-II
T2 construct: Eurofins (protocol only) ITEM24
T2 sequence (P30556 1-359): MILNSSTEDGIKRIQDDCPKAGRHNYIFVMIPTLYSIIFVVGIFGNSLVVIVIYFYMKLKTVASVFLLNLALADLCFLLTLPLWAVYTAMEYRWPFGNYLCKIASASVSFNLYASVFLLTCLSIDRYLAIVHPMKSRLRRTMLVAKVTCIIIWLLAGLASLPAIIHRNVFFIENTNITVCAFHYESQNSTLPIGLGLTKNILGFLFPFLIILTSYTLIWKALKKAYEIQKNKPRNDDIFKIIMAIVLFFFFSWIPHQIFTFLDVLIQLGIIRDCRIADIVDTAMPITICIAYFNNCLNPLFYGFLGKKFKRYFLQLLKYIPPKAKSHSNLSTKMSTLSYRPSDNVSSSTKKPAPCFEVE

[3] = Metabolic stability in pooled human liver microsomes; format: in vitro ADME; conditions: human liver microsomes 0.5 mg/mL, 1 μM compound, 37° C.
CYP2C9 [4] = target: T3, CYP2C9 (Homo sapiens, UniProt P11712); test: CYP inhibition of C21 found during development; format: in vitro ADME
T3 sequence (P11712 whole entry): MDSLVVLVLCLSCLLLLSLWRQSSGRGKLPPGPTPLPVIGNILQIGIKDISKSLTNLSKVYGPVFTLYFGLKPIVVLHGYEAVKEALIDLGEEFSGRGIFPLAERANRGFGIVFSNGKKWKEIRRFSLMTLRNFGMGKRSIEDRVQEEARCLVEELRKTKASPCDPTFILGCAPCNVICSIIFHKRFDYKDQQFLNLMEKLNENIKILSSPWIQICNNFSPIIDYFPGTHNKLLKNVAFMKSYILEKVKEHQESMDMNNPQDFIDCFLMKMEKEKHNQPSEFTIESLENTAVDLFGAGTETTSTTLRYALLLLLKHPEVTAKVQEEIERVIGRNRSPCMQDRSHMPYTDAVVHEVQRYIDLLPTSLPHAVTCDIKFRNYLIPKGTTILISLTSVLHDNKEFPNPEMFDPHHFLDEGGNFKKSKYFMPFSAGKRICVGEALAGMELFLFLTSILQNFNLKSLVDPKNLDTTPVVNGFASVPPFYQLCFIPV

[5] = Metabolic hydrolysis of C21 found during development; format: in vitro ADME
CYP3A4 [6] = target: T4, CYP3A4 (Homo sapiens, UniProt P08684); test: CYP inhibition of C21 found during development; format: in vitro ADME
T4 sequence (P08684 whole entry): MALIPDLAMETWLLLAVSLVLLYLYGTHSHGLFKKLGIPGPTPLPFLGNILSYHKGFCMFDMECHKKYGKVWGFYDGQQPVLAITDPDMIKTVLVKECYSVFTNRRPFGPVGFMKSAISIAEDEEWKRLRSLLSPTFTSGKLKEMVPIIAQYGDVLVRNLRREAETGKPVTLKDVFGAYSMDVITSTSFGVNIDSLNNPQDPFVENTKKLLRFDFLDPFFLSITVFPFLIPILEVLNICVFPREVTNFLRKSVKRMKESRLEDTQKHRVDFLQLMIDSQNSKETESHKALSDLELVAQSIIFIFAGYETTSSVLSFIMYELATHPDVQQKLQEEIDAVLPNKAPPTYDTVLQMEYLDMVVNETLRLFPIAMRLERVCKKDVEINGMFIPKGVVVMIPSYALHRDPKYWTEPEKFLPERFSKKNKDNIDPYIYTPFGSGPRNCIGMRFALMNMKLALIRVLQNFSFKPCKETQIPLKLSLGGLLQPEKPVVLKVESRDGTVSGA

CYP2D6 = target: T5, CYP2D6 (Homo sapiens, UniProt P10635); test: CYP inhibition in human liver microsomes, CYP2D6; format: in vitro ADME; conditions: probe dextromethorphan, substrate dextromethorphan, read-out: CYP2D6 Inh %
T5 construct: incubated with human liver microsomes; from tissue; host or cells: human liver microsomes
T5 sequence (P10635 whole entry): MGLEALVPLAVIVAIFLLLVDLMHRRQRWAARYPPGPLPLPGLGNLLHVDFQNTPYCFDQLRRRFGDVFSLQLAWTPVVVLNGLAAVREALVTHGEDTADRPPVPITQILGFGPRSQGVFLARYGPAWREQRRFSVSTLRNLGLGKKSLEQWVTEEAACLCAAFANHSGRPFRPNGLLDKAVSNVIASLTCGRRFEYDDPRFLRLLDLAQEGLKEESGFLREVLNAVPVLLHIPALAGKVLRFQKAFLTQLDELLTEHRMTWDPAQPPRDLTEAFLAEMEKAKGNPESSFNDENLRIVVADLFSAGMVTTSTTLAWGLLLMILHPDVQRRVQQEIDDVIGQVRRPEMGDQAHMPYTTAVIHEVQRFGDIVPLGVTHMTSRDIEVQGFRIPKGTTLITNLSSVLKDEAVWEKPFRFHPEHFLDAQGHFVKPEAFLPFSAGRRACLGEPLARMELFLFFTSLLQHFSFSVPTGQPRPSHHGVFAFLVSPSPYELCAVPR

CYP2B6 = target: T6, CYP2B6 (Homo sapiens, UniProt P20813); test: CYP inhibition in human liver microsomes, CYP2B6; format: in vitro ADME; conditions: probe bupropion, substrate bupropion, read-out: CYP2B6 Inh %
T6 construct: incubated with human liver microsomes; from tissue; host or cells: human liver microsomes
T6 sequence (P20813 1-491): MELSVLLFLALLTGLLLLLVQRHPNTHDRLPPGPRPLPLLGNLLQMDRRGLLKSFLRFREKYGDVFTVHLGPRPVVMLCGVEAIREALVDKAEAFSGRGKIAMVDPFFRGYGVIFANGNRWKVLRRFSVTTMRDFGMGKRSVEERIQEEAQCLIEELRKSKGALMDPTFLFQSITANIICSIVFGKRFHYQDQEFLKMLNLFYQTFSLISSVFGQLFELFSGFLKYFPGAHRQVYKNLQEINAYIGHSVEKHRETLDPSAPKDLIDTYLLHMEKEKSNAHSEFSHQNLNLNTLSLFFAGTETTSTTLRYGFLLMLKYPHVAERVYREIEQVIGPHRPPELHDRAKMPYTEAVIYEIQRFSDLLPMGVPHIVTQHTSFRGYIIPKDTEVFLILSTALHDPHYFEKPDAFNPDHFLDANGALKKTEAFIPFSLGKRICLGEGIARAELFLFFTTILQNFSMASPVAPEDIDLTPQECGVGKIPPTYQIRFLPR

CYP1A = target: T7, CYP1A (Homo sapiens, UniProt P05177); test: CYP inhibition in human liver microsomes, CYP1A; format: in vitro ADME; conditions: probe phenacetin, substrate phenacetin, read-out: CYP1A Inh %
T7 construct: incubated with human liver microsomes; from tissue; host or cells: human liver microsomes
T7 sequence (P05177 whole entry): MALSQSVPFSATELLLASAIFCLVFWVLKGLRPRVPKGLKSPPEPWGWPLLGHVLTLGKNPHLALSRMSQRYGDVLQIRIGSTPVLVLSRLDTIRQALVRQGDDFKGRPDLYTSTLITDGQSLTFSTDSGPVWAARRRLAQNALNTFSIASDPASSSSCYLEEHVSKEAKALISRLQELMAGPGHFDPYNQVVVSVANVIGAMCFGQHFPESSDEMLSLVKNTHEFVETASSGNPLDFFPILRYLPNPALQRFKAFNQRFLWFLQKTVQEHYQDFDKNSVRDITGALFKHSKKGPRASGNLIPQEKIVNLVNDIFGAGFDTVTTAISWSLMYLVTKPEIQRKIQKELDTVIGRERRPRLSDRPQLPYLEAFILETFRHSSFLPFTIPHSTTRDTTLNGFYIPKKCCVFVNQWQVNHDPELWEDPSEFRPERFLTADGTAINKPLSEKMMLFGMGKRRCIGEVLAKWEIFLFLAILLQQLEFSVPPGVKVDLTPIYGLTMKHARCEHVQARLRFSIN

CYP2C8 = target: T8, CYP2C8 (Homo sapiens, UniProt P10632); test: CYP inhibition in human liver microsomes, CYP2C8; format: in vitro ADME; conditions: probe paclitaxel and amodiaquine, substrates paclitaxel and amodiaquine, read-out: CYP2C8 Inh %
T8 construct: incubated with human liver microsomes; from tissue; host or cells: human liver microsomes
T8 sequence (P10632 1-490): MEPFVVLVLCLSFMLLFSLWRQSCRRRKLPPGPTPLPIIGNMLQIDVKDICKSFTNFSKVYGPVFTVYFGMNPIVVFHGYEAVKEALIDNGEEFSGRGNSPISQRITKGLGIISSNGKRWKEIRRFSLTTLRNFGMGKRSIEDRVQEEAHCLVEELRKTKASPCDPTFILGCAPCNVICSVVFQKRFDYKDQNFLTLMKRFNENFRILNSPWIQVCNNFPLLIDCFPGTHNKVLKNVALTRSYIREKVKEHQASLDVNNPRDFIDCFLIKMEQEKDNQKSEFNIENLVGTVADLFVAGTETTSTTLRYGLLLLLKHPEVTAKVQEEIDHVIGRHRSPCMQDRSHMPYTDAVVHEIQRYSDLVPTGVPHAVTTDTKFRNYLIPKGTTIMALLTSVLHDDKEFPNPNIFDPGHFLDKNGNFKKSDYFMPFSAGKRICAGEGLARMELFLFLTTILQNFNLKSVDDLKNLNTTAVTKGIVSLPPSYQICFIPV

CYP3A4 [7] = target: T4, CYP3A4; test: CYP inhibition in human liver microsomes, CYP3A4 midazolam; format: in vitro ADME; design: incubated with human liver microsomes; from tissue; host or cells: human liver microsomes; conditions: probe midazolam, substrate midazolam, read-out: CYP3A4 midazolam Inh %
CYP3A4&5 = test: CYP inhibition in human liver microsomes, CYP3A4&5 testosterone; format: in vitro ADME; conditions: probe testosterone, substrate testosterone, read-out: CYP3A4&5 testosterone Inh %
CYP2C9 [8] = target: T3, CYP2C9; test: CYP inhibition in human liver microsomes, CYP2C9; format: in vitro ADME; design: incubated with human liver microsomes; from tissue; host or cells: human liver microsomes; conditions: probe diclofenac, substrate diclofenac, read-out: CYP2C9 Inh %
CYP2C19 = target: T9, CYP2C19 (Homo sapiens, UniProt P33261); test: CYP inhibition in human liver microsomes, CYP2C19; format: in vitro ADME; conditions: probe omeprazole, substrate omeprazole, read-out: CYP2C19 Inh %
T9 construct: incubated with human liver microsomes; from tissue; host or cells: human liver microsomes
T9 sequence (P33261 whole entry): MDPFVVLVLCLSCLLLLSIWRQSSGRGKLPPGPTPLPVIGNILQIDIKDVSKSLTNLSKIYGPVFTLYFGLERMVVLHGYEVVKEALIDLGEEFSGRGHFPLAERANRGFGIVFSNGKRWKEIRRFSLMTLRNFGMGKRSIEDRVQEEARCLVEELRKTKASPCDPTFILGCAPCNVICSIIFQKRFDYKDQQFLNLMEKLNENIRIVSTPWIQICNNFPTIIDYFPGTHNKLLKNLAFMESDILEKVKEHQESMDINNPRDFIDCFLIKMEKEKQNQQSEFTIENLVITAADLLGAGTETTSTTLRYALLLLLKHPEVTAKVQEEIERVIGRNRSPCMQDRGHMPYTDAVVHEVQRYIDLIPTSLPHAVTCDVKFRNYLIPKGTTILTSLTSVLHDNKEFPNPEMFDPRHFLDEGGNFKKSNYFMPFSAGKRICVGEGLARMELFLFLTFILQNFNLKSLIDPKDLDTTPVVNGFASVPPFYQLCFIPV

[9] = with 1 mM NADPH, read-out: T1/2, + NaDPH
[10] = without NADPH, read-out: T1/2, no NaDPH

Row | SMILES | IC50 [1] [nM] | Ki [1] [nM] | IC50 [2] [nM] | half-life at 1 μM [3, 9] [min] | half-life at 1 μM [3, 10] [min] | other results
1 | CC(C)Cc1nc(-c2ccc(Cn3ccnc3C(C)(C)C)cc2)c(S(=O)(=O)NC(=O)NCc2cccs2)s1 [Example 1, 4-(4-((2-(tert-Butyl)-1H-imidazol-1-yl)methyl)phenyl)-2-isobutyl-N-((thiophen-2-ylmethyl)carbamoyl)thiazole-5-sulfonamide] | 13 | 6.5 | 1350 | – | – | –
2 | COC(=O)NS(=O)(=O)c1ccc(CC(C)C)cc1-c1ccc(Cn2ccnc2C)cc1 [Example 18, Methyl (5-isobutyl-4′-((2-methyl-1H-imidazol-1-yl)methyl)-[1,1′-biphenyl]-2-yl)sulfonylcarbamate] | 1.78 | 0.93 | – | > 60 | > 60 | –
3 | CCCCOC(=O)NS(=O)(=O)c1sc(CC(C)C)cc1-c1ccc(Cn2ccnc2)cc1 [Example C21, N-butyloxycarbonyl-3-(4-imidazol-1-ylmethylphenyl)-5-isobutylthiophene-2-sulfon-amide] | – | – | – | – | – | inhibition of CYP 2C9 (CYP2C9 [4]): potent inhibitor; metabolic hydrolysis [5]: rapidly hydrolysed to an inactive sulfonamide metabolite; inhibition of CYP 3A4 (CYP3A4 [6]): potent inhibitor
4 | CC(C)Cc1ccc(S(=O)(=O)NC(=O)OCCO)c(-c2ccc(Cn3ccnc3C(C)(C)C)c(F)c2)c1 [Example 17, 2-Hydroxyethyl (4′-((2-(tert-butyl)-1H-imidazol-1-yl)methyl)-3′-fluoro-5-isobutyl-[1,1′-biphenyl]-2-yl)sulfonylcarbamate] | 0.274 | 0.14 | – | > 60 | > 60 | –
5 | CCCCOC(=O)NS(=O)(=O)c1ccc(CC(C)C)cc1-c1ccc(Cn2ccnc2C(C)(C)C)c(F)c1 [Example 4, Butyl ((4′-((2-(tert-butyl)-1H-imidazol-1-yl)methyl)-3′-fluoro-5-isobutyl-[1,1′-biphenyl]-2-yl)sulfonyl)carbamate] | 0.49 | 0.25 | 1200 | 2 | 4 | inhibition at 10 µM (CYP2D6): 26.5%; inhibition at 10 µM (CYP2B6): 62.4%; inhibition at 10 µM (CYP1A): -35.8%; inhibition at 10 µM (CYP2C8): 87.5%; inhibition at 10 µM (CYP3A4 [7]): 18.1%; inhibition at 10 µM (CYP3A4&5): 23.5%; inhibition at 10 µM (CYP2C9 [8]): 92.8%; inhibition at 10 µM (CYP2C19): 60.4%
6 | CC(C)Cc1ccc(S(=O)(=O)NC(=O)NCc2ccccn2)c(-c2ccc(Cn3ccnc3C(C)(C)C)cc2)c1 [Example 2, 4′-((2-(tert-Butyl)-1H-imidazol-1-yl)methyl)-5-isobutyl-N-((pyridin-2-ylmethyl)carbamoyl)-[1,1′-biphenyl]-2-sulfonamide] | 0.43 | 0.22 | 4600 | – | – | –
